Test results as given in patent publication US10543159B2, “Hair papilla cell activator” (Ezaki Glico Co., Ltd., priority 2014, dated 2020).
Structures can show the parent of a compound that is named as a salt.

How the values were obtained:
[1] = test system: FGF7 and VEGF; assay: Gene expression with POs-Ca (R) combined with general hair-restoration components (Example 8); assay type: cell-based, human; conditions: 0.25% POs-Ca (R) with 0.25% glycyrrhizinate dipotassium, 1% tocopherol acetate, 0.125% pantothenyl ethyl ether or 1% Swertia japonica; two wells
Procedure: (1) Glycyrrhizinate dipotassium (for biochemical use) from Wako Pure Chemical Industries, Ltd. was diluted to 20% (w/v) with water, and sterilized by being passed through a 0.20-μm filter (Minisart, surfactant-free cellulose acetate, Sartorius Stedim Biotech, US) with a 10-ml syringe (Terumo Corporation), and the resulting product was diluted with sterilized water, as required, and used.
(2) (±)-α-Tocopherol acetate (first grade) from Wako Pure Chemical Industries, Ltd., as tocopherol acetate, and DL-pantothenyl ethyl ether from Santa Cruz Biotechnology, as pantothenyl ethyl ether, were each diluted 5-fold to 20% (v/v) with ethanol, and diluted with sterilized water, as required, and used.
(3) A water-ethanol solution of Swertia japonica extract from Senken Co., Ltd., as a 100% (v/v) extract, was diluted with sterilized water, as required, and used.
(1) 500 μl of a special medium in which 2×10^4 cells/ml of follicle dermal papilla cells were suspended was dispensed into a type I collagen-coated 24-well cell culture plate (Corning), and cultured at a cell density of 5×10^3 cells/cm^2 at 37° C. for 96 hours, until the cells reached subconfluent. […]
(3) Two wells were used for culturing each of the DMEM solutions containing (a) to (i). The expression levels of FGF7 and VEGF were analyzed as in (3) to (8) of Example 3, and the average values of the two wells were compared.

[2] = test system: VEGF; assay: Expression rate of VEGF among acidic saccharide salts, quantitative PCR (Example 6); assay type: cell-based, human; conditions: Example 6: solutions (b)-(h) of b288 mixed 1:9 with DMEM, GAPDH reference, mean of 4 PCR assays
Procedure: (§1) (1) 500 μl of a special medium in which 2×10^4 cells/ml of follicle dermal papilla cells were suspended was dispensed into a type I collagen-coated 24-well cell culture plate (Corning), and cultured at a cell density of 5×10^3 cells/cm^2 at 37° C. for 72 hours. […] Oji Cornstarch Co., Ltd.), (f) a 2.5% (w/v) aqueous solution of a phosphorylated oligosaccharide magnesium salt (POs-Mg; […] (3) Each of the solutions (a) to (c) was mixed with DMEM high glucose (Sigma, USA) at a ratio of 1:9. (4) Following the procedures (4) to (6) in Example 2, mRNA was extracted from the cells, cDNA was prepared, and then the expression levels of the VEGF, FGF-7, and GAPDH genes were quantified by quantitative PCR. (7) Using GAPDH as a reference gene, a comparative analysis of expression levels was performed with the analysis software (Bio-Rad CFX Manager 3.0) included in CFX96Touch. The expression levels were calculated under the default conditions of the software.

[3] = test system: FGF-7; assay: Expression rate of FGF-7 among acidic saccharide salts, quantitative PCR (Example 6); assay type: cell-based, human; conditions: Example 6: solutions (b)-(h) of b288 mixed 1:9 with DMEM, GAPDH reference, mean of 4 PCR assays
Procedure: as §1

[4] = test system: human follicle dermal papilla cells; assay: Follicle dermal papilla cell proliferation, Cell Counting Kit-F cell count (Example 2); assay type: cell-based
Procedure: A strain (Lot. 3092504.12) sold by PromoCell (Germany) was used as human follicle dermal papilla cells. The cells were cultured in a CO2 incubator at 37° C., using a special medium for follicle dermal papilla cells (PromoCell), unless otherwise indicated. Cell subculturing was performed as follows: cells were seeded at 5000 to 10000 cells/cm^2 in an uncoated dish, and when the cells reached subconfluent, they were treated with trypsin-EDTA (0.03%) and detached, and then re-seeded. […] The medium was replaced about once every 3 days.
1. The procedures (1) and (3) to (5) in Example 1 were performed in the same manner as described above. Solutions of the compositions shown in the following table were prepared in a concentration series starting from a 10% (w/v) aqueous solution of POs-Ca (R), a 12.9% (w/v) aqueous solution of G1P-Ca, a 1.84% (w/v) aqueous solution of CaCl2.2H2O, or a 10% (w/v) aqueous solution of POs-Na.
2. In place of the conditions ((6), (7) and (8)) in Example 1, Cell Counting Kit-F (Dojindo Molecular Technologies, Inc.) was added to each well in accordance with the manual, and the number of cells was counted.

[5] = test system: Wnt5a; assay: Quantitative PCR gene expression in follicle dermal papilla cells: Wnt5a; assay type: cell-based, human; conditions: 37° C., 5 hours
Procedure: (§2) (1) 500 μl of a special medium in which 4×10^4 cells/ml of follicle dermal papilla cells were suspended was dispensed into a type I collagen-coated 24-well cell culture plate (Corning), and cultured at a cell density of 1.0×10^4 cells/cm^2 at 37° C. for 42 hours. […] Each of the solutions (a) to (c) was mixed with DMEM high glucose (Sigma, USA) at a ratio of 1:9.
(§3) (3) The medium was aspirated from each well obtained in (1), the well was washed by adding 1 ml of 1×PBS (137 mM NaCl, 8.1 mM Na2HPO4, 2.68 mM KCl, 1.47 mM KH2PO4 (pH 7.4); Wako Pure Chemical Industries, Ltd.), and aspirating the PBS, 500 μl of DMEM high glucose was added, and the cells were incubated in a CO2 incubator at 37° C. for 5 hours. […]
(4) The medium was removed from each well, and then mRNA was extracted using CellAmp Direct RNA Prep Kit for RT-PCR (Takara). The method was performed in accordance with the manual for the kit.
(5) 8 μl of the extracted mRNA solution (200 μl for each well) was used, and cDNA was obtained by the reverse transcription reaction at a scale of 40 μl, using PrimeScript RT Master Mix (Takara). The reaction conditions were as set forth in the manual for the kit.
(6) 0.5 μl of each of cDNA solutions diluted 2-fold with water, 1 μl of a solution containing 4 μM of each of primers 1 and 2 for each of the genes shown in Table 2, 5 μl of SYBR Premix Ex Taq II (Takara), and 3.5 μl of water were added, and quantitative PCR was performed on each of the genes. Using CFX96 Touch (BIO-RAD, USA), denaturation treatment at 95° C. for 30 seconds was performed, and then a two-step cycle at 95° C. for 5 seconds and at 62° C. for 20 seconds was performed for 65 cycles. Fluorescence intensity after each cycle was measured.
(§4) (7) Using PGK1 and GAPDH as reference genes, a comparative analysis of expression levels was performed with the analysis software (Bio-Rad CFX Manager 3.0) included in CFX96Touch. Relative expression levels were calculated under the default conditions of the software. […]

[6] = test system: VEGF; assay: Quantitative PCR gene expression in follicle dermal papilla cells: VEGF; assay type: cell-based, human; conditions: Example 5: 0.25% POs-Ca (R), 50 μM adenosine or both; DMEM serum-free, 37° C., 5 hours; Dunnett p<0.05, n=8
[7] = test system: FGF-7; assay: Quantitative PCR gene expression in follicle dermal papilla cells: FGF-7; assay type: cell-based, human; conditions: 37° C., 5 hours
Procedure: as §2, §3
(6) 0.5 μl of each of cDNA solutions diluted 2-fold with water, 1 μl of a solution containing 4 μM of each of primers 1 and 2 for each of the genes shown in Table 2, 5 μl of SYBR Premix Ex Taq II (Takara), and 3.5 μl of water were added, and quantitative PCR was performed on each of the genes. […] Fluorescence intensity after each cycle was measured.
as §4

[8] = Example 5: 0.25% POs-Ca (R), 50 μM adenosine or both, DMEM serum-free, Dunnett p<0.05, n=8
[9] = Example 7: 0.25% POs-Mg or MgCl2.6H2O with equivalent magnesium, DMEM, Dunnett p<0.05

CC(=O)Oc1c(C)c(C)c2c(c1C)CCC(C)(CCC[C@H](C)CCC[C@H](C)CCCC(C)C)O2 (mixture of isomers) [tocopherol acetate, (±)-α-Tocopherol acetate]
synergistic effect with POs-Ca (R) on expression of FGF7 and VEGF [1]: None

O=P(O)(O)OC1O[C@H](CO)[C@@H](O)[C@H](O)[C@H]1O (some centres unmarked) [G1P-Ca, glucose-1-phosphate calcium salt]
VEGF, relative values of the expression levels based on the control as 1 ([2]; calcium salt): induced an increase | VEGF, relative values of the expression levels based on the control as 1 ([2]; listed as G1P—Ca, calcium salt): 1.46 | FGF7, relative values of the expression levels based on the control as 1 ([3]; calcium salt): induced an increase | FGF7, relative values of the expression levels based on the control as 1 ([3]; listed as G1P—Ca, calcium salt): 1.10 | working concentrations having the effect of proliferating follicle dermal papilla cells ([4]; FIG. 1B-1D legends, Dunnett p<0.05): over 0.3% | number of cells compared to that without addition ([4]; concentration series of Table 1A, 3 days): increased at all concentrations

O=C([O-])[C@H](O)[C@@H](O)[C@H](O[C@@H]1O[C@H](CO)[C@H](O)[C@H](O)[C@H]1O)[C@H](O)CO.O=C([O-])[C@H](O)[C@@H](O)[C@H](O[C@@H]1O[C@H](CO)[C@H](O)[C@H](O)[C@H]1O)[C@H](O)CO.[Ca+2] [Lactobio-Ca, calcium lactobionate]
VEGF, relative values of the expression levels based on the control as 1 [2]: 1.48 | VEGF, relative values of the expression levels based on the control as 1 ([2]; listed as calcium lactobionate): induced an increase | FGF7, relative values of the expression levels based on the control as 1 [3]: 1.35 | FGF7, relative values of the expression levels based on the control as 1 ([3]; listed as calcium lactobionate): induced an increase

Nc1ncnc2c1ncn2[C@@H]1O[C@H](CO)[C@@H](O)[C@H]1O [adenosine]
expression of WNTSA (Wnt5a) compared to without treatment [5, 8]: significant difference | expression of VEGF compared to without treatment [6]: significant difference | expression of FGF7 compared to without treatment [7, 8]: significant difference

CC1(C)[C@@H](O[C@H]2O[C@H](C(=O)O)[C@@H](O)[C@H](O)[C@H]2O[C@@H]2O[C@H](C(=O)O)[C@@H](O)[C@H](O)[C@H]2O)CC[C@]2(C)[C@H]3C(=O)C=C4[C@@H]5C[C@@](C)(C(=O)O)CC[C@]5(C)CC[C@@]4(C)[C@]3(C)CC[C@@H]12 [glycyrrhizinate dipotassium, Glycyrrhizinate dipotassium]
synergistic effect with POs-Ca (R) on expression of FGF7 and VEGF [1]: None

magnesium chloride hexahydrate [general magnesium]
expression of WNTSA [5, 9]: not observed | expression of FGF7 [7, 9]: not observed
